Results: patent publication US9598362B2, “Benzidine derivative, method for preparing same, and pharmaceutical composition containing benzidine derivative for treating liver disease caused by hepatitis C virus” (priority 2013, dated 2017)
Read-outs that look alike come from different tables or passages of the source.

What was measured:
HCV (JFH-5aFlucm4) = test: Evaluation of anti-HCV activity 1: huh7.5.1 cells inoculated with HCV carrying renilla luciferase reporter; format: cell-based; conditions: Hepatitis C virus
[1] = Evaluation of plasma stability; format: in vitro ADME, mouse; conditions: plasma:phosphate buffer pH 7.4 1:1, 37° C., LC-MS/MS, relative to time 0
Description: Particularly, the compound of Example 16 was dissolved in dimethylsulfoxide at the concentration of 5 μM, resulting in the preparation of the sample solution. The plasma solution (495 μl) was prepared by mixing phosphate buffer (pH 7.4) and plasma at the ratio of 1:1, which was loaded in each well of a 96-well plate. The sample solution prepared above was added to each well (5 μl) of the plate. Then, the plate was covered with a lid, followed by shaking-culture at 100 rpm at 37° C. for 0.5, 1, and 4 hours in the orbital shaker. The reaction was terminated by adding 0-5° C. acetonitrile. At this time, in the case when the process time was 0 after the sample treatment, the reaction was terminated with acetonitrile at the same time as the sample solution was loaded in the plate containing the plasma solution. Upon completion of the reaction, the plate was kept frozen. Then, the plate was centrifuged at 3000 rpm for 10 minutes. Upon completion of the centrifugation, the supernatant (100 μl) was loaded in each well of a 96-well plate, followed by LC-MS/MS. The result obtained by measuring the plasma survival rate at the process time 0 was considered as the standard, based on which each time-dependent plasma survival rate was calculated by considering the concentration over the time of each sample. The results are presented in Tale 6.

Compound: COC(=O)N[C@@H](C(=O)N1CCC[C@H]1C(=O)Nc1ccc(-c2ccc(NC(=O)[C@@H]3CCCN3C(=O)[C@H](NC(=O)OC)c3ccccc3)cc2)cc1)c1ccccc1 [Example 16, dimethyl(1S,1′S)-2,2′-((2S,2′S)-2,2′-(biphenyl-4,4′-diylbis(azandiyl))bis(oxomethylene)bis(pyrrolidine-2,1-diyl))bis(2-oxo-1-phenylethane-2,1-diyl)dicarbamate]
- EC50 (HCV (JFH-5aFlucm4); Huh-7.5.1): < 1 nM
- EC50 (HCV (JFH-5aFlucm4); Huh-7.5.1, 72 h, read-out: EC50 grade): < 1 nM
- Survival rate after 0.5 h [1]: >99%
- Survival rate after 1 h [1]: >99%
